From the METLIN SMRT retention time set (Domingo-Almenara et al. 2019)

Test: gradient 5% acetonitrile 3 min, to 50% in 2 min, to 85% in 15 min, held 3 min, 100 µL/min
Conditions: column: Zorbax Extend-C18 2.1 x 50 mm; eluents: water / acetonitrile, 0.1% formic acid
In short: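 A Zorbax Extend-C18 column (2.1 × 50 mm, 1.8 μm) run at 100 μL/min with water and acetonitrile, both containing 0.1% formic acid, separated mixtures of ~100 pure standards. The HPLC was coupled to a quadrupole time-of-flight mass spectrometer operated in positive and negative ionization mode, with dead and dwell volumes of 40 μL and 900 μL. Each retention time was taken from a computationally picked adduct peak that was then manually inspected.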

Row | RP-LC retention time [s] | SMILES
1 | 1190 | O=C(CSc1cc(N2CCN(c3ccccc3F)CC2)ncn1)Nc1ccccc1F
2 | 777 | COc1ccccc1N1CCN(c2cc(SCC(=O)NCc3ccco3)ncn2)CC1
3 | 901 | Cc1cccc(C)c1Nc1c(-c2ccc(F)cc2)nc2cnccn12
4 | 645 | Cc1ccc(CC(=O)N(CCS(=O)(=O)N2CCNCC2)CC2CCCO2)cc1 (stereo not drawn)
5 | 752 | CN1CCCn2cc(S(=O)(=O)NCCc3ccc(Cl)cc3)cc2C1=O
6 | 580 | Cn1c(CN2CCN(C(=O)c3cc4ccccc4o3)CC2)nc2ccccc21
7 | 839 | COc1cccc(NC(=O)Cn2nc3c(Oc4cccc(F)c4)nccn3c2=O)c1
8 | 1120 | COc1cc(Nc2nc(-c3nnn(-c4ccc(Br)cc4F)c3C)ns2)cc(OC)c1
9 | 976 | CC(C)C(=O)N1CCc2c([nH]c3ccccc23)C12C(=O)N(C)c1ccc(Br)cc12 (stereo not drawn)
10 | 862 | CC1=C(C(=O)OCCc2ccccc2)C(c2ccc(F)cc2)NC(=O)N1 (stereo not drawn)
11 | 829 | O=C(C1CC1)N1CCc2sc(S(=O)(=O)Nc3cccc(F)c3)cc2C1
12 | 590 | COc1ccc(-c2nnc(N3CCC(C(=O)NCCN4CCCC4)CC3)o2)cc1
13 | 576 | O=C(NCC(=O)N1CCN(c2ccccn2)CC1)c1cncc(Br)c1
14 | 706 | COc1ccc(NC(=O)Cn2ccc3sccc3c2=O)cc1
15 | 966 | COc1ccc(-c2cc3c(=O)n(Cc4nc(-c5ccccc5)oc4C)ccn3n2)cc1OC
16 | 914 | COc1ccccc1C(=O)Nc1nnc(SCc2nnc(-c3ccccc3)o2)s1
17 | 607 | COc1ccc(C(CNC(=O)c2cc(=O)c3ccccc3o2)N(C)C)cc1 (stereo not drawn)
18 | 963 | COc1ccc(Nc2nc(-c3nnn(-c4cccc(Cl)c4)c3C)ns2)cc1OC
19 | 1060 | CCOC(=O)c1ccccc1NC(=O)Cn1nc2c(Sc3ccccc3)nccn2c1=O
20 | 566 | CCN(CC)C(=O)N1CC(c2nc(-c3ccncc3)nn2C)C1
21 | 672 | O=C(CN1CCC(c2nc(-c3cccs3)no2)CC1)NCc1ccc2c(c1)OCO2
22 | 1130 | Cc1cc(C)cc(-n2c(-c3ccc(Cl)cc3)cn3c4c(=O)n(C)c(=O)n(C)c4nc23)c1

Row | RP-LC retention time [s] | SMILES
23 | 840 | CCc1cccc(NC(=O)C2CCN(S(=O)(=O)c3cn(C(C)C)cn3)CC2)c1
24 | 826 | COc1cc(C(O)c2nc3ccccc3s2)cc(OC)c1OC (stereo not drawn)
25 | 856 | CCOc1ccccc1-n1ccn(Cc2nc(-c3cccc(OC)c3)no2)c(=O)c1=O
26 | 917 | CCc1ccc(NC(=O)Cn2nc(C(=O)N3CCCC3)c3ccccc32)cc1
27 | 773 | Cc1ccc(Nc2c(-c3c(F)cccc3Cl)nc3ccc(C)cn23)cc1
28 | 789 | Cc1cc(-c2nnc(NC(=O)c3cc4cc([N+](=O)[O-])ccc4s3)o2)n(C)n1
29 | 1090 | COc1c(C(=O)N2CCN(c3ccccc3)CC2)sc2cccc(F)c12
30 | 1020 | C=CCOC(=O)COc1ccc2c(=O)c(-c3ccc(Cl)cc3)coc2c1
31 | 598 | CCCOc1ccc(S(=O)(=O)NCC2CCN(C(=O)c3ccccc3F)CC2)cc1C
32 | 968 | Cc1sc(NC(=O)c2ccccc2Cl)nc1-c1ccc2c(c1)N(C)C(=O)CO2
33 | 683 | CCCCOc1ccc(CNC(=O)CCc2ccc3nc(CC)[nH]c3c2)cc1
34 | 727 | N#Cc1ccc(NC(=O)C2Oc3ccccc3NC2=O)cc1 (stereo not drawn)
35 | 897 | Cc1cc(C)cc(NC(=O)N2CCCC(C)(C(=O)NCc3ccccc3C)C2)c1 (stereo not drawn)
36 | 1160 | Cc1csc(-c2cc(S(=O)(=O)NC(C)(C)C)cn2CC(=O)N2CCCC2)n1
37 | 816 | Cc1cccc(-c2cc(C(N)=O)c3ccccc3n2)c1
38 | 1240 | Cc1ccc(-c2noc(C3CCCN3S(=O)(=O)c3cc(C)ccc3C)n2)cc1 (stereo not drawn)
39 | 600 | CCc1nc2cc(N3CCCC(C(=O)NCc4cccnc4)C3)cnc2nc1CC (stereo not drawn)
40 | 598 | CN(C)C(=O)c1ccc2c(c1)nc(CN(C)C(=O)Nc1ccc(F)cc1)n2C
41 | 592 | Cc1ccc2nc(NC(=O)CN3CCC(C(N)=O)CC3)sc2c1
42 | 970 | O=C(C1CC(=O)N(c2ccccc2)C1)N1CCN(c2ccc(-c3noc(C4CCC4)n3)cc2)CC1 (stereo not drawn)
43 | 668 | CN(C)CCn1nnc2cc(-c3noc(Cc4cccc(F)c4)n3)ccc21
44 | 1060 | Cc1oc2ccn(Cc3cccc(F)c3)c(=O)c2c1C(=O)NCc1ccccc1F

Row | RP-LC retention time [s] | SMILES
45 | 831 | CCCCNC(=O)c1nc(Nc2ccc(C)cc2)c2ccccc2n1
46 | 705 | CCc1cccc(C)c1NC(=O)Cn1nc2c3ccccc3ncn2c1=O
47 | 958 | Cc1cc(Cl)cc2sc(NCC3CCCO3)nc12 (stereo not drawn)
48 | 1080 | CCOC(=O)c1ccccc1NC(=O)CSc1nnc2c3cc(-c4ccc(C)cc4)nn3ccn12
49 | 953 | CCN(Cc1ccccc1)C(=O)C1CCN(S(=O)(=O)c2ccc3c(c2)sc(=O)n3CC)CC1
50 | 840 | O=C(Cn1c(=O)c2cccn2c2ccc(F)cc21)N1CCCCCC1
51 | 821 | COc1ccc(C2Cn3cnc(C(=O)N4CCC(C(=O)NC5CCC(C)CC5)CC4)c3CO2)cc1 (stereo not drawn)
52 | 743 | COc1ccc(-c2c(C)noc2NC(C)=O)cc1S(=O)(=O)Nc1ccc(F)cc1F
53 | 986 | CCCCCNC(=O)CN1c2ccc(F)cc2-c2ccccc2S1(=O)=O
54 | 618 | CCCN(CC1CC1)C(=O)CCC[C@@H]1[C@H]2CCCN3CCC[C@@H](CN1C(C)=O)[C@@H]23
55 | 741 | Cc1cccc(Nc2c(-c3ccccc3)nc3nc(C)cc(C)n23)c1
56 | 1240 | CCC(Oc1ccccc1)C(=O)Nc1nc(-c2ccc(Cl)cc2)cs1 (stereo not drawn)
57 | 639 | Cc1c(C(=O)O)nnn1-c1ccc2c(c1)OCO2
58 | 677 | CNC(=O)c1nsc(C(=O)OC)c1N
59 | 1120 | COc1ccc(CCC(=O)Nc2nc(-c3ccc(Cl)cc3)cs2)cc1
60 | 718 | Cc1cc(C(=O)NOCCO)c(Nc2ccc(I)cc2F)n(C)c1=O
61 | 699 | CC1(C)CC(=O)c2cn(-c3ccccc3)c(=O)c(C(=O)N3CCCC3)c2C1
62 | 592 | O=C(NCC1(N2CCOCC2)CCOC1)Nc1cc(F)ccc1F (stereo not drawn)
63 | 740 | COc1ccc(NS(=O)(=O)c2cn(C)c3ncccc23)cc1
64 | 784 | COc1ccc(C(=O)N2CCN(c3ccc(=O)n(-c4cccc(Cl)c4)n3)CC2)cc1OC
65 | 548 | CCOC(=O)Cn1c(=N)n(CCN2CCOCC2)c2ccccc21
66 | 576 | COc1cc(NC(=O)N2CCC(CC(=O)N3CCN(c4ccccn4)CC3)CC2)cc(OC)c1OC

Row | RP-LC retention time [s] | SMILES
67 | 916 | CCN1C(=O)c2cccnc2Sc2cc(NC(=O)COc3cccc(Cl)c3)ccc21
68 | 924 | CCCn1cc(CCNS(=O)(=O)c2ccc(C)cc2C)c2cccnc21
69 | 702 | O=C(NCC(c1cccnc1)N1CCc2ccccc21)C(=O)Nc1ccccc1[N+](=O)[O-] (stereo not drawn)
70 | 1310 | Cc1csc(-c2csc(S(=O)(=O)N3CCN(c4cccc(C)c4C)CC3)c2)n1
71 | 627 | COCCCNC(=O)C1CCN(S(=O)(=O)c2ccc3c(c2)NC(=O)CO3)CC1
72 | 1040 | CC(C)CC(=O)N1CCc2c([nH]c3ccccc23)C12C(=O)N(C)c1ccc(Br)cc12 (stereo not drawn)
73 | 595 | COc1cc2c(cc1OC)C(C(=O)NCCN1CCOCC1)C1c3ccccc3CCN1C2=O (stereo not drawn)
74 | 1280 | CCCCn1c(=O)c2ccccc2n(Cc2nc(-c3cccc(Br)c3)no2)c1=O
75 | 913 | O=c1ccn(-c2ccc(Cl)cc2)nc1-c1nc(-c2ccc3c(c2)OCO3)no1
76 | 647 | CCc1noc(C2CCCCN2C(=O)c2c[nH]c3ccccc23)n1 (stereo not drawn)
77 | 957 | COc1ccc(S(=O)(=O)N2CCCC(C(=O)Nc3ccc4c(c3)OCO4)C2)cc1C (stereo not drawn)
78 | 615 | Cc1nccn1Cc1noc(-c2ccccc2Cl)n1
79 | 601 | O=C(c1ccc(F)cc1F)N1CCN(c2ccc3nncn3n2)CC1
80 | 815 | CC(NC(=O)Cn1cc(C(=O)C(=O)N2CCCC2)c2ccccc21)c1ccc2c(c1)OCCCO2 (stereo not drawn)
81 | 1040 | O=C(O)CCc1ccc(NCc2cccc(Oc3ccccc3)c2)cc1
82 | 697 | COc1ccc(CCc2nc3nccc(-c4ccncc4)n3n2)cc1
83 | 1010 | O=C(Cc1cccs1)N1CCN(S(=O)(=O)c2cc(-c3noc(C4CCC4)n3)cs2)CC1
84 | 1220 | CCOc1cccc(-c2noc(Cn3ccn4nc(-c5ccc(C)c(C)c5)cc4c3=O)n2)c1
85 | 603 | CCn1c(SCC(=O)N2CCC(C(N)=O)CC2)nnc1-c1sc2ncccc2c1N
86 | 842 | CCN(CC)C(=O)Cn1nc2cc(-c3ccc(OC)cc3)nc(C)n2c1=O
87 | 946 | CCCS(=O)(=O)N1CC(=O)N(c2cccc(Cl)c2C)C(C)(C(=O)NC2CCCC2)C1 (stereo not drawn)
88 | 882 | Cc1cc(C)cc(S(=O)(=O)N2CCC(c3nc(C(=O)N(C)C)c(C)o3)CC2)c1
